# According to patent US20030004154A1, “New crystal forms of oxcarbazepine and processes for their preparation” (priority 2001, published 2003):
# Like-named read-outs stand apart in the source and are kept apart here.
# Experiments:
# [1] = Solid form after slurry in protic solvent, analyzed by PXRD; type: physicochemical
# Method: One skilled in the art may appreciate that other protic solvents may be used and the optimal conditions may be determined through routine experimentation. The characterization of crystalline phases were performed using Phillips PW 1710 Diffractometer. Thermograviometric analysis (TGA) was produced using Mettler TG50 equipped with Mettler TC11 TA processor. Differential Scanning calorimetry (DSC) was performed using Mettler DSC 30 apparatus. FTIR spectra were recorded using Nicolet Avatar 360 spectrometer. Oxcarbazepine Form B was suspended in ethanol for 24 hours. The product was analyzed by PXRD and determined to be Form A. Oxcarbazepine Form C was suspended in ethanol for 24 hours. The product was analyzed by PXRD and determined to be Form A. Oxcarbazepine Form D was suspended in water for 24 hours. The product is analyzed by PXRD and is determined to be Form A.
# [2] = Solid form after heating, analyzed by PXRD; type: physicochemical
# Method: The present invention also provides for processes that convert one form of oxcarbazepine into another form of oxcarbazepine. Form A may be obtained by heating oxcarbazepine solvate Form E at elevated temperatures between 40° C. and 80° C., preferably 60° C., for a period of 2 hours to 10 hours, preferably 4 hours. One skilled in the art may appreciate that Form E may transform to Form A under different conditions, and that the optimal conditions may be discovered with routine experimentation. The present invention also provides a process for transforming Form B to Form A. At about ambient temperature, Form B transforms to Form C. One skilled in the art would appreciate that such a transition may also occur at temperatures above and below ambient temperature, and that by routine experimentation the boundary of the temperature range may be determined. At higher temperatures, between 60° C. and 120° C., preferably 60° C., a transformation from form B to form A occurs after a few hours, as determined by the temperature. The temperature at which Form B transforms to Form A rather than Form C may be determined by routine experimentation. One skilled in the art may appreciate that the rate and extent of the transformation varies with the conditions and the amount of time under which the transformation occurs. […] FTIR spectra were recorded using Nicolet Avatar 360 spectrometer. […]
# [3] = Solid form after storage at ambient temperature, analyzed by PXRD; type: physicochemical; conditions: stored at ambient temperature (about 20 to 30° C.; gradual, may occur over several months)
# Method: The present invention also provides a process for transforming Form B to Form C. […] The transformation is gradual and prolonged, and may occur over several months. One skilled in the art may appreciate that the optimal conditions and time for transformation may be discovered through routine experimentation. The characterization of crystalline phases were performed using Phillips PW 1710 Diffractometer. Thermograviometric analysis (TGA) was produced using Mettler TG50 equipped with Mettler TC11 TA processor. Differential Scanning calorimetry (DSC) was performed using Mettler DSC 30 apparatus. FTIR spectra were recorded using Nicolet Avatar 360 spectrometer. Oxcarbazepine Form B was stored at an ambient temperature. The resulting material was analyzed by PXRD and found to be Form C.
# [4] = system: voltage sensitive sodium channels; conditions: in vitro studies; cited from earlier work
# [5] = cited from earlier work
compound,measurement,setting,value
"NC(=O)N1c2ccccc2CC(=O)c2ccccc21 [Oxcarbazepine Form B, 10-oxo-10,11-dihydro-5H-dibenz[b, f]azepine-5-carboxamide]",crystal form found by PXRD after suspension in solvent (solid-state stability),[1]; suspended in ethanol for 24 hours,Form A
same,crystal form found by PXRD after heating (solid-state stability),"[2]; heated to about 60° C., maintained for five hours",Form A
same,crystal form found by PXRD after storage (solid-state stability),[3],Form C
NC(=O)N1c2ccccc2CC(O)c2ccccc21 (centres unmarked) [10-hydroxy metabolite of oxcarbazepine],effect on voltage sensitive sodium channels,[4],blocks voltage sensitive sodium channels
"NC(=O)N1c2ccccc2CC(=O)c2ccccc21 [Oxcarbazepine solvate Form E, 10-oxo-10,11-dihydro-5H-dibenz[b, f]azepine-5-carboxamide]",crystal form found by PXRD after heating (solid-state stability),"[2]; heated to 60° C., maintained for 4 hours",Form A
"NC(=O)N1c2ccccc2CC(=O)c2ccccc21 [Oxcarbazepine Form D, 10-oxo-10,11-dihydro-5H-dibenz[b, f]azepine-5-carboxamide]",crystal form found by PXRD after suspension in solvent (solid-state stability),[1]; suspended in water for 24 hours,Form A
"NC(=O)N1c2ccccc2CC(=O)c2ccccc21 [Oxcarbazepine Form A, 10-oxo-10,11-dihydro-5H-dibenz[b, f]azepine-5-carboxamide]",solubility,"[5]; solvents ethanol, ether and water",practically insoluble
same,solubility,"[5]; solvents such as chloroform, dichloromethane, acetone and methanol",slightly soluble
